Experimental data: ChEMBL document CHEMBL5143628, “Enteroviral replication inhibition by N-Alkyl triazolopyrimidinone derivatives through a non-capsid binding mode” (Bioorg Med Chem Lett, 2022)

Tests used:
[1] = Selectivity index, ratio of CC50 for cytotoxicity against human H1-HeLa cells to EC50 for antiviral activity against Human rhinovirus A71 infected in human H1-HeLa cells; assay type: toxicity, cell-based; settings: H1-HeLa cells, read-out: Ratio CC50/EC50
CYP2C19 = CYP2C19 (Homo sapiens, UniProt P33261); assay: Inhibition of human CYP2C19 at 10 uM incubated for 20 mins in presence of NADPH regenerating system by luminescence assay relative to control; assay type: ADME
Sequence of CYP2C19 (P33261 whole entry): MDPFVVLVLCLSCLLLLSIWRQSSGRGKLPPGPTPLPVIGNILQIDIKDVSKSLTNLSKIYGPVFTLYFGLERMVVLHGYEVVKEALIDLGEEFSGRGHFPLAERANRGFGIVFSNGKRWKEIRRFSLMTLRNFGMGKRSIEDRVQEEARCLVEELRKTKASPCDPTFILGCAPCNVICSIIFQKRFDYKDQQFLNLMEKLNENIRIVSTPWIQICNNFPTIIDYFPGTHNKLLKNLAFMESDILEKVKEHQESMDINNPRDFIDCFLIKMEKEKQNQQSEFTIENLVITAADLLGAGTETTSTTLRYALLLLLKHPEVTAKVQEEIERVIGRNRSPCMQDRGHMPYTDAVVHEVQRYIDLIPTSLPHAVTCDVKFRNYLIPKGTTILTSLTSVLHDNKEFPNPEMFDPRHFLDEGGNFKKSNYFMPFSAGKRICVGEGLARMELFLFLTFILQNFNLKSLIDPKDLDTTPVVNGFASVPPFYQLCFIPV

Coxsackievirus B1 = assay: Antiviral activity against Human coxsackievirus B1 infected in human H1-HeLa cells assessed as reduction in virus induced cytopathic effect incubated for 2 days by MTT assay; assay type: functional, organism-based; settings: Enterovirus B, 48 h
[2] = Antiviral activity against Human rhinovirus A71 infected in human H1-HeLa cells assessed as reduction in virus induced cytopathic effect incubated for 3 days by MTT assay; assay type: functional, cell-based; settings: Rhinovirus A, H1-HeLa, 72 h
Poliovirus 3 = assay: Antiviral activity against Human poliovirus 3 infected in human H1-HeLa cells assessed as reduction in virus induced cytopathic effect incubated for 2 days by MTT assay; assay type: functional, organism-based; settings: Enterovirus C, 48 h
CYP3A4 = CYP3A4 (Homo sapiens, UniProt P08684); assay: Inhibition of human CYP3A4 at 10 uM incubated for 20 mins in presence of NADPH regenerating system by luminescence assay relative to control; assay type: ADME
Sequence of CYP3A4 (P08684 whole entry): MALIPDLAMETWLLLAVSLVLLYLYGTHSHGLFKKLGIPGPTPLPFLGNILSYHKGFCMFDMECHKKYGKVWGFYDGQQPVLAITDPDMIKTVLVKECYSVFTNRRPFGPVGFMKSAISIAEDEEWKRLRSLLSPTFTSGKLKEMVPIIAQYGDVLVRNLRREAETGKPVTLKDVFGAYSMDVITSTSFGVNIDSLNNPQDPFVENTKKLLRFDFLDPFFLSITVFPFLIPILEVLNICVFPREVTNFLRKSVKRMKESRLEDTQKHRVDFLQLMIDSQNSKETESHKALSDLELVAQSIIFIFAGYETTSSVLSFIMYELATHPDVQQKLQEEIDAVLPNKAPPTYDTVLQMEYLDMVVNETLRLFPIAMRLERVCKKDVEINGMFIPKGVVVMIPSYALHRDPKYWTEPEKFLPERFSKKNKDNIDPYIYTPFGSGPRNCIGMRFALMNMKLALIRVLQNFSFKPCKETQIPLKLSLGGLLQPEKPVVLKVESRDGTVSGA

[3] = AUCinfinity in Sprague-Dawley rat at 10 mg/kg, po by LC/MS/MS analysis; assay type: ADME, organism-based; set-up: time infinity, dose 10 mg/kg, route po; settings: in vivo
Rhinovirus A [4] = assay: Antiviral activity against Rhinovirus A33 infected in human H1-HeLa cells assessed as reduction in virus induced cytopathic effect incubated for 3 days by MTT assay; assay type: functional, cell-based; settings: Rhinovirus A, 33, H1-HeLa, 72 h
rhinovirus A1B = assay: Antiviral activity against Rhinovirus A1B infected in human H1-HeLa cells assessed as reduction in virus induced cytopathic effect incubated for 3 days by MTT assay; assay type: functional, organism-based; settings: Rhinovirus A, 72 h
[5] = Cmax in Sprague-Dawley rat at 10 mg/kg, po by LC/MS/MS analysis; assay type: ADME, organism-based; set-up: dose 10 mg/kg, route po; settings: in vivo
[6] = Selectivity index, ratio of CC50 for cytotoxicity against human H1-HeLa cells to EC50 for antiviral activity against Human rhinovirus B14 infected in human H1-HeLa cells; assay type: toxicity, cell-based
[7] = Cytotoxicity against human H1-HeLa cells assessed as reduction in cell viability by MTT assay; assay type: toxicity, cell-based; settings: H1-HeLa cells
rhinovirus A21 = assay: Antiviral activity against Human rhinovirus A21 infected in human H1-HeLa cells assessed as reduction in virus induced cytopathic effect incubated for 3 days by MTT assay; assay type: functional, organism-based; settings: h1-hela
[8] = Antiviral activity against Human rhinovirus 42 infected in human H1-HeLa cells assessed as reduction in virus induced cytopathic effect incubated for 3 days by MTT assay; assay type: functional, cell-based; settings: Rhinovirus B, 72 h
rhinovirus A16 = assay: Antiviral activity against Human rhinovirus 16 infected in human H1-HeLa cells assessed as reduction in virus induced cytopathic effect incubated for 3 days by MTT assay; assay type: functional, organism-based; settings: Rhinovirus A, 72 h
CYP1A2 = molecular target: T1, CYP1A2 (Homo sapiens, UniProt P05177); assay: Inhibition of human CYP1A2 at 10 uM incubated for 20 mins in presence of NADPH regenerating system by luminescence assay relative to control; assay type: ADME
T1 sequence (P05177 whole entry): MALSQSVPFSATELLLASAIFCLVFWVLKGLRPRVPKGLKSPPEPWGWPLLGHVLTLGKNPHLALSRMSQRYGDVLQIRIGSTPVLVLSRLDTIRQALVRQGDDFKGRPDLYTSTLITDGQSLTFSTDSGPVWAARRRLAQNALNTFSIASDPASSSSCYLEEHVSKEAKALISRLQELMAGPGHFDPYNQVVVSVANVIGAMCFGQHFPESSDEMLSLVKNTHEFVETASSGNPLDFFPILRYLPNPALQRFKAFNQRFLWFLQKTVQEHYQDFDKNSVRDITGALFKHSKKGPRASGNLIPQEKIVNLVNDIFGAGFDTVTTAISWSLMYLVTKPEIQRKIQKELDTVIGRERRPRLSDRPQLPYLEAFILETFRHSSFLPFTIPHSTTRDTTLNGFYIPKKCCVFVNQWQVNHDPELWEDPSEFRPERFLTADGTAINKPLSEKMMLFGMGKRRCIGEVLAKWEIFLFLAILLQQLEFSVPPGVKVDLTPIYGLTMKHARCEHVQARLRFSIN

CYP2C9 = CYP2C9 (Homo sapiens, UniProt P11712); assay: Inhibition of human CYP2C9 at 10 uM incubated for 20 mins in presence of NADPH regenerating system by luminescence assay relative to control; assay type: ADME
Sequence of CYP2C9 (P11712 whole entry): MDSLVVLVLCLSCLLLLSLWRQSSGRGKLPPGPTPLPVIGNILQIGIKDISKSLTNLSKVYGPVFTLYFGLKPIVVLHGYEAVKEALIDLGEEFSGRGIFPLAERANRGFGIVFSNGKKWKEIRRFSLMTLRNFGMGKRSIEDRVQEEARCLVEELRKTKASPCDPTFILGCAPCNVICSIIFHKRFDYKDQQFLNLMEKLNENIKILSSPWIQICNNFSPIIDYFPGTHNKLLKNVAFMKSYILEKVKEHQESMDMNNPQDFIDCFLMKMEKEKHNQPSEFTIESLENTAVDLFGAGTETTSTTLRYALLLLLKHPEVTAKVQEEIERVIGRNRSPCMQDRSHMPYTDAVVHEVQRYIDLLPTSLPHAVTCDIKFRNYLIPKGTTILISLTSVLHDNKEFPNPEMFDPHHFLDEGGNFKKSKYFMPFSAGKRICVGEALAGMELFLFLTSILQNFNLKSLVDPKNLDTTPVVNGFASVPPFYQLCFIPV

[9] = Cytotoxicity against human H1-HeLa cells transfected with Enterovirus A71 replicon RNAs assessed as reduction in cell viability by CellTiter-Glo luminescent cell viability assay; assay type: toxicity, cell-based
CYP2D6 = CYP2D6 (Homo sapiens, UniProt P10635); assay: Inhibition of human CYP2D6 at 10 uM incubated for 20 mins in presence of NADPH regenerating system by luminescence assay relative to control; assay type: ADME
Sequence of CYP2D6 (P10635 whole entry): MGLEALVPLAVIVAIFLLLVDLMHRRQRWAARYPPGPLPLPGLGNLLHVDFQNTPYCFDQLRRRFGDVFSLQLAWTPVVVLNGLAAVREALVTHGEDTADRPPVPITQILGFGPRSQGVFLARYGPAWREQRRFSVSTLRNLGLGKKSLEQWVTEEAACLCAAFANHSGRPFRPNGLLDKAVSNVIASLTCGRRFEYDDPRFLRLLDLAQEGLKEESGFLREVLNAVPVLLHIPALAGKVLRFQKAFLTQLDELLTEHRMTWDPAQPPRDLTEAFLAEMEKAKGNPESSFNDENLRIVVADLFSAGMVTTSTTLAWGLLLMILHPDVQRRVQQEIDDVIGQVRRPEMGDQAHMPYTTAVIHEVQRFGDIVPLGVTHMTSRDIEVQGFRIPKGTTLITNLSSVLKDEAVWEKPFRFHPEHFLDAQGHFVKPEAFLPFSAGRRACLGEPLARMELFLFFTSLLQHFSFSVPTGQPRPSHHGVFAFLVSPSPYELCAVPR

rhinovirus B86 = assay: Antiviral activity against Human rhinovirus 86 infected in human H1-HeLa cells assessed as reduction in virus induced cytopathic effect incubated for 3 days by MTT assay; assay type: functional, organism-based; settings: Rhinovirus B, 72 h
[10] = Tmax in Sprague-Dawley rat at 10 mg/kg, po by LC/MS/MS analysis; assay type: ADME, organism-based; settings: in vivo
Rhinovirus A [11] = assay: Antiviral activity against Rhinovirus A98 infected in human H1-HeLa cells assessed as reduction in virus induced cytopathic effect incubated for 3 days by MTT assay; assay type: functional, cell-based; settings: Rhinovirus A, 98, H1-HeLa, 72 h
rhinovirus A2 = assay: Antiviral activity against Human rhinovirus 2 infected in human H1-HeLa cells assessed as reduction in virus induced cytopathic effect incubated for 3 days by MTT assay; assay type: functional, organism-based; settings: Rhinovirus A, 72 h
[12] = Metabolic stability in pooled rat liver microsomes at 1 uM incubated for 30 mins in presence of NADPH regenerating system by LC/MS/MS analysis; assay type: ADME, Microsome; settings: 0.5 h
Rhinovirus B [13] = assay: Antiviral activity against Rhinovirus B91 infected in human H1-HeLa cells assessed as reduction in virus induced cytopathic effect incubated for 3 days by MTT assay; assay type: functional, organism-based; settings: Rhinovirus B, 91, H1-HeLa, 72 h
[14] = Metabolic stability in pooled human liver microsomes at 1 uM incubated for 30 mins in presence of NADPH regenerating system by LC/MS/MS analysis; assay type: ADME, Microsome; settings: 0.5 h
[15] = Inhibition of Enterovirus A71 replicon RNA transfected in human H1-HeLa cells assessed as reduction in replication measured after 8 hrs by One-Glo luciferase assay; assay type: cell-based; settings: Enterovirus A
[16] = Selectivity index, ratio of CC50 for cytotoxicity against human H1-HeLa cells to EC50 for antiviral activity against Human rhinovirus A21 infected in human H1-HeLa cells; assay type: toxicity, cell-based
Rhinovirus B [17] = assay: Antiviral activity against Rhinovirus B27 infected in human H1-HeLa cells assessed as reduction in virus induced cytopathic effect incubated for 3 days by MTT assay; assay type: functional, organism-based; settings: Rhinovirus B, 27, H1-HeLa, 72 h
rhinovirus B14 = assay: Antiviral activity against Human rhinovirus B14 infected in human H1-HeLa cells assessed as reduction in virus induced cytopathic effect incubated for 3 days by MTT assay; assay type: functional, organism-based; settings: h1-hela
[18] = AUClast in Sprague-Dawley rat at 10 mg/kg, po by LC/MS/MS analysis; assay type: ADME, organism-based; set-up: time 0 - last, dose 10 mg/kg, route po; settings: in vivo
[19] = Half life in Sprague-Dawley rat at 10 mg/kg, po by LC/MS/MS analysis; assay type: ADME, organism-based; settings: in vivo

## CCCn1c(=O)c2c3c(sc2n2cnnc12)CC(C(C)(C)C)CC3 (stereo in doubt)
[1]
  selectivity ratio: 33.2
CYP2C19
  inhibition at 20 min, 10 µM: 7.19%
Coxsackievirus B1
  EC50: 19800 nM
[2]
  EC50: 1600 nM
Poliovirus 3
  EC50: 1670 nM
CYP3A4
  inhibition at 20 min, 10 µM: 3.24%
[3]
  AUC(0-inf): 200 ng·h/mL
Rhinovirus A [4]
  EC50: 1500 nM
Rhinovirus A1B
  EC50: 1900 nM
[5]
  Cmax: 20 ng/mL
[6]
  Ratio CC50/EC50: 37.2
[7]
  CC50: 77100 nM
Rhinovirus A21
  EC50: 2000 nM
[8]
  EC50: 1600 nM
Rhinovirus A16
  EC50: 1900 nM
CYP1A2
  inhibition at 20 min, 10 µM: 7.46%
CYP2C9
  inhibition at 20 min, 10 µM: 11.9%
[9]
  CC50: > 30000 nM
CYP2D6
  inhibition at 20 min, 10 µM: 1.26%
Rhinovirus B86
  EC50: 1500 nM
[10]
  Tmax: 3.5 h
Rhinovirus A [11]
  EC50: 1900 nM
Rhinovirus A2
  EC50: 1900 nM
[12]
  Stability: Stable
Rhinovirus B [13]
  EC50: 1700 nM
[14]
  Stability: Stable
[15]
  IC50: 1700 nM
[16]
  Ratio CC50/EC50: 42.2
Rhinovirus B [17]
  EC50: 1600 nM
Rhinovirus B14
  EC50: 1800 nM
[18]
  AUC(0-t): 180 ng·h/mL
[19]
  half-life: 8.89 h
